{"source": "patent US9133235B2", "about": "“Macrocyclic antagonists of the motilin receptor for treatment of gastrointestinal dysmotility disorders” (Ocera Therapeutics, Inc., priority 2006, dated 2015)", "key": {"[1]": {"assay": "Oral bioavailability in rat of representative formulations of compound 552", "assay_type": "in vivo", "from_the_text": "The pharmacokinetic behavior of compound of the invention can be ascertained by methods well known to those skilled in the art. (Wilkinson, G. R. “Pharmacokinetics: The Dynamics of Drug Absorption, Distribution, and Elimination” in Goodman & Gilman's The Pharmacological Basis of Therapeutics, Tenth Edition, Hardman, J. G.; Limbird, L. E., Eds., McGraw Hill, Columbus, Ohio, 2001, Chapter 1.) The following method was used to investigate the pharmacokinetic parameters (elimination half-life, total plasma clearance, etc.) for intravenous, subcutaneous and oral administration of compounds of the present invention.\nPreparation of Representative Formulations of Compounds of the Invention\nThe pharmacokinetic parameters of representative formulations are determined through established methods known to those skilled-in the art as previously referenced in Method 3-I. Results with representative formulations for a representative compound of the present invention are shown below."}, "[2]": {"system": "isolated colonic segments from the shrew", "assay": "Contractile activity of isolated muscle strips of the shrew", "from_the_text": "J. Evaluation of Contractile Activity of Isolated Muscle Strips from the Stomach, Duodenum and Colon of the Shrew.\nMotilin (threshold concentration of 10^−8 M) enhances contractions induced by electrical field stimulation (4 Hz) by a post-ganglionic interaction with the cholinergic neurotransmission. At higher concentrations, motilin causes a tonic contraction interacting directly with the antral smooth muscle. Analogously, the effects of motilin and [Nle^13]-motilin (Calbiochem), as selective agonists of the motilin receptor, on smooth muscle strips isolated from the gastric antrum, the circular muscle of the duodenum and the colon of the shrew were investigated. Immunohistochemical studies have shown that endocrine cells in the GI tract of the musk shrew express motilin (Kanamori, Y.; Nakazawa, S.; Kitoh, J.; Hoshino, M. The distribution of endocrine cells in the mucosa of the gastrointestinal tract of the house musk shrew, Suncus murinus (Insectivora). Cell. Tissue Res. 1989, 258, 365-71; Kitamura, N.; Yamada, J.; Watanabe, T.; Yamashita, T. An immunohistochemical study on the distribution of endocrine cells in the gastrointestinal tract of the musk shrew, Suncus murinus. Histol Histopathol. 1990, 5, 83-88.) Shrews were fasted for 8-10 h, euthanized with CO2 inhalation, and the stomach, the duodenum and colon isolated immediately and placed in Krebs buffer aerated with 95% O2 and 5% CO2. Specifically, mucosa-free circular muscle strips were isolated from the antral region, the duodenum and the colon using a dissecting microscope. Isometric contractions were recorded in organ baths following equilibration at optimal tension using the PowerLab data acquisition system. […]\nTo define the effect of test compounds on different regions of the GI tract of the shrew (gastric antrum, […] and colon) and to evaluate the antagonist affinity of test compounds in this model system, the ability of varying concentrations of test compound to antagonize the motilin or [Nle^13]-motilin-induced contractions was measured in organ baths as described above. […]"}, "[3]": {"settings": "oral 8 mg/kg, 5% HP-β-CD in water"}, "[4]": {"settings": "oral 8 mg/kg, Cremophor EL/Lysorbate 80/Soybean oil"}, "[5]": {"settings": "oral 8 mg/kg, Oleic Acid/Labrafil"}, "[6]": {"settings": "plasma, IV 2 mg/kg, 5% HP-β-CD in water"}, "[7]": {"settings": "plasma, iv, 2 mg/kg, IV 2 mg/kg, 5% HP-β-CD in water"}, "[8]": {"settings": "plasma, po, 8 mg/kg, oral 8 mg/kg, 5% HP-β-CD in water"}, "[9]": {"settings": "plasma, po, 8 mg/kg, oral 8 mg/kg, Cremophor EL/Lysorbate 80/Soybean oil"}, "[10]": {"settings": "plasma, po, 8 mg/kg, oral 8 mg/kg, Oleic Acid/Labrafil"}}, "note": "Where “and” joins values, the source holds several entries; their conditions need not be identical. Identical values can stand only once.", "data": [{"molecule": "CCC[C@@H]1NC(=O)[C@@H](C(C)C)NC(=O)[C@@H](Cc2ccc(O)c(Cl)c2)N[C@@H](C)COc2ccccc2CCCNC1=O", "note": "[Compound 552]", "values": [{"measurement": "F (%) (average)", "setting": "[1]; [3]", "value": "10 ± 5", "unit": "%"}, {"measurement": "Tmax (min)", "setting": "[1]; [3]", "value": "5/15"}, {"measurement": "F (%) (individual results)", "setting": "[1]; oral 8 mg/kg, 5% HP-β-CD in water, 8 mg/kg", "value": "6% and 15% and 9%"}, {"measurement": "F (%) (average)", "setting": "[1]; [4]", "value": "16 ± 1", "unit": "%"}, {"measurement": "Tmax (min)", "setting": "[1]; [4]", "value": "15/30"}, {"measurement": "F (%) (individual results)", "setting": "[1]; oral 8 mg/kg, Cremophor EL/Lysorbate 80/Soybean oil, 8 mg/kg", "value": "18% and 15% and 16%"}, {"measurement": "F (%) (average)", "setting": "[1]; [5]", "value": "14 ± 7", "unit": "%"}, {"measurement": "Tmax (min)", "setting": "[1]; [5]", "value": "30/60"}, {"measurement": "F (%) (individual results)", "setting": "[1]; oral 8 mg/kg, Oleic Acid/Labrafil, 8 mg/kg", "value": "7% and 21% and 15%"}, {"measurement": "Clearance", "setting": "[1]; [6]", "value": "55 ± 10", "unit": "mL/min/kg"}, {"measurement": "Tmax", "setting": "[1]; [6]", "value": 5, "unit": "min"}, {"measurement": "half-life", "setting": "[1]; [6]", "value": "45 ± 13", "unit": "min"}, {"measurement": "AUC(0-inf)", "setting": "[1]; [7]", "value": 616, "unit": "ng·h/mL"}, {"measurement": "Cmax", "setting": "[1]; [7]", "value": "1720 ± 299", "unit": "ng/mL"}, {"measurement": "AUC(0-inf)", "setting": "[1]; [8]", "value": 255, "unit": "ng·h/mL"}, {"measurement": "Cmax", "setting": "[1]; [8]", "value": "369 ± 97", "unit": "ng/mL"}, {"measurement": "AUC(0-inf)", "setting": "[1]; [9]", "value": 397, "unit": "ng·h/mL"}, {"measurement": "Cmax", "setting": "[1]; [9]", "value": "229 ± 162", "unit": "ng/mL"}, {"measurement": "AUC(0-inf)", "setting": "[1]; [10]", "value": 357, "unit": "ng·h/mL"}, {"measurement": "Cmax", "setting": "[1]; [10]", "value": "143 ± 77", "unit": "ng/mL"}, {"measurement": "effect on contractile response to 0.3 μM [Nle^13]-motilin", "setting": "[2]; 0.01 μM-10 μM, FIG. 18", "value": "dose-dependent inhibition"}, {"measurement": "effect on contractile response to 0.3 μM motilin", "setting": "[2]; 0.01 μM-10 μM, FIG. 18", "value": "dose-dependent inhibition"}, {"measurement": "change in basal contractile activity", "setting": "[2]; data not shown", "value": "did not cause a significant change"}]}]}
